Values after ≈ are worked out from the molar mass of the structure shown. Bounds are passed on as bounds.

Format in all cases: cell-based
One test has as its system S. pneumoniae. The test can be described thus: MIC by agar plate dilution against clinical isolates of S. pneumoniae. The note with it: 6 strains of S. pneumoniae (clinical isolates), 18 to 24 hr, 35° C; for MIC: Streptococcus pneumoniae, read-out: MIC or MIC range, S. pneumoniae. The protocol:
(§1) Minimal Inhibitory concentrations (MIC) of inhibitors against clinical isolates of S. pneumoniae, H. influenzae and M. catarrhalis obtained from the Public Health and Clinical Microbiology Laboratory, Addenbrooke's Hospital, Hills Road, Cambridge CB2 2QW, UK, were determined by a standard agar plate dilution method following recommended in British Society for Antimicrobial Chemotherapy Working Party. 1991. “A guide to sensitivity testing British Society for Antimicrobial Chemotherapy, London, United Kingdom”. Briefly Iso-Sensitest agar (pH 7.2: Oxoid, United Kingdom) was employed supplemented with 5% horse blood (Oxoid) and 20 μg of NAD (Sigma) per ml to support growth of fastidious bacteria. The inoculum used was approximately 10^4 colony forming units of each isolate contained in a volume of 1 μl. Plates were incubated 18 to 24 hr in air, or for fastidious bacteria an atmosphere enriched with 4–6% carbon dioxide at 35° C. The MIC was determined as the lowest concentration of an antimicrobial tested that inhibited growth of the inoculum, disregarding a single persisting colony or faint haze caused by the inoculation.
(§2) The compounds of the Examples were are antibacterially active in the above assays, The following table states the MICs or MIC ranges of the tested compounds against 6 strains of S. pneumoniae, 4 strains of H. influenzae and 3 strains of M. catarrhalis.

The test system of another test is H. influenzae. Put plainly: MIC by agar plate dilution against clinical isolates of H. influenzae. The note with it: 4 strains of H. influenzae (clinical isolates), 18 to 24 hr, 35° C; for MIC: Haemophilus influenzae, read-out: MIC or MIC range, H. Influenzae. The procedure: as §1, §2
A further test relates to M. catarrhalis. The test can be described thus: MIC by agar plate dilution against clinical isolates of M. catarrhalis. The conditions noted are these: 3 strains of M. catarrhalis (clinical isolates), 18 to 24 hr, 35° C; for MIC: Moraxella catarrhalis, read-out: MIC or MIC range, M. catarrhalis. The protocol: as §1, §2

Turning to `O=CN(O)C[C@@H](CC1CCCC1)C(=O)N1CCCCN1C(=O)Nc1ccc2c(c1)OCCO2` [Example 19, 2-[(2R)-Cyclopentylmethyl-3-(formylhydroxyamino)-propionyl]-tetrahydropyridazine-1-Carboxylic acid (2,3,4a,8a-tetrahydrobenzo[1,4]dioxin-6-yl)amide], the MIC in the test on S. pneumoniae is 2 to 4 µg/mL (≈ 4.34 to 8.69 µM); with H. influenzae it was 0.125 to 4 µg/mL (≈ 0.271 to 8.69 µM); in the test on M. catarrhalis, less than 0.125 µg/mL.

`COc1ccccc1NC(=O)N1CCCCN1C(=O)[C@H](CC1CCCC1)CN(O)C=O` [Example 20, 2-[(2R)-Cyclopentylmethyl-3-(formylhydroxyamino)-propionyl]-tetrahydropyridazine-1-Carboxylic acid (2-methoxyphenyl)amide]: the MIC with S. pneumoniae is 4 to 8 µg/mL (≈ 9.25 to 18.5 µM); in the test with H. influenzae it was 0.5 to 2 µg/mL (≈ 1.16 to 4.62 µM); with M. catarrhalis, less than 0.03 µg/mL.

For the compound `CN(C(=O)N1CCCCN1C(=O)[C@H](CC1CCCC1)CN(O)C=O)c1ccccc1` [Example 21, 2-[(2R)-Cyclopentylmethyl-3-(formylhydroxyamino)-propionyl]-tetrahydropyridazine-1-Carboxylic acid methylphenylamide], the “MIC or MIC range, S. pneumoniae” value in the test on S. pneumoniae was in the range of 1 to 4 µg/mL. Moreover, in the test on H. influenzae, the “MIC or MIC range, H. Influenzae” value lay in the range of 4 to 16 µg/mL. For the same compound, the “MIC or MIC range, M. catarrhalis” value with M. catarrhalis stood at 0.125 µg/mL (≈ 0.3 µM).

Consider `CC(C)(C)OC(=O)N1CCCN1C(=O)[C@H](CC1CCCC1)CN(O)C=O` [Example 23, 2-[(2R)-Cyclopentylmethyl-3-(formylhydroxyamino)-propionyl]-pyrazolidine-1-Carboxylic acid tert-butyl ester], for which, in the test with S. pneumoniae, the “MIC or MIC range, S. pneumoniae” value lay in the range of 8 to 16 µg/mL. Besides, the “MIC or MIC range, H. Influenzae” value in the test with H. influenzae was 0.5 to 2 µg/mL. In addition, the “MIC or MIC range, M. catarrhalis” value in the test with M. catarrhalis is less than 0.125 µg/mL.

Regarding `CC(C)(C)OC(=O)N1CCCCN1C(=O)[C@H](CC1CCCC1)CN(O)C=O` [Example 24, 2-[(2R)-Cyclopentylmethyl-3-(formylhydroxyamino)-propionyl]-tetrahydropyridazine-1-Carboxylic acid tert-butyl ester], the MIC in the test on S. pneumoniae was 4 to 16 µg/mL (≈ 10.4 to 41.7 µM); with H. influenzae, 1 to 4 µg/mL (≈ 2.61 to 10.4 µM); in the test on M. catarrhalis, less than 0.125 µg/mL.

On to `COCC(=O)N1CCCN1C(=O)[C@H](CC1CCCC1)CN(O)C=O` [Example 26, N-{(2R)-Cyclopentylmethyl-3-[2-(2-methoxyacetyl)-pyrazolidin-1-yl]-3-oxo-propyl}N-hydroxyformamide], for which the results for the MIC in the test with S. pneumoniae, in the test with H. influenzae and in the test with M. catarrhalis were 8 µg/mL (≈ 23.4 µM), 1 to 8 µg/mL (≈ 2.93 to 23.4 µM) and 0.125 µg/mL (≈ 0.366 µM), respectively.

With `O=CN(O)C[C@@H](CC1CCCC1)C(=O)N1CCCN1C(=O)c1ccccc1` [Example 27, N-{(2R)-Cyclopentylmethyl-3-[2-benzoyl-pyrazolidin-1-yl]-3-oxo-propyl}-N-hydroxyformamide], the MIC is 16 µg/mL (≈ 42.8 µM) with S. pneumoniae, 2 to 16 µg/mL (≈ 5.36 to 42.8 µM) in the test on H. influenzae and 0.06 µg/mL (≈ 0.161 µM) in the test on M. catarrhalis.

With `O=CN(O)C[C@@H](CC1CCCC1)C(=O)N1CCCN1C(=O)c1ccc(C(F)(F)F)cc1` [Example 28, N-{(2R)-Cyclopentylmethyl-3-[2-(4-trifluoromethylbenzoyl)-pyrazolidin-1-yl]-3-oxo-propyl}-N-hydroxyformamide], the MIC in the test with S. pneumoniae is 0.5 to 4 µg/mL (≈ 1.13 to 9.06 µM); in the test on H. influenzae it was 16 µg/mL (≈ 36.2 µM); in the test on M. catarrhalis, 0.06 µg/mL (≈ 0.136 µM).

In the case of `O=CN(O)C[C@@H](CC1CCCC1)C(=O)N1CCCN1C(=O)Cc1ccccc1` [Example 29, N-{(2R)-Cyclopentylmethyl-3-[2-phenylacetyl-pyrazolidin-1-yl]-3-oxo-propyl}-N-hydroxyformamide], the MIC with S. pneumoniae was 4 to 8 µg/mL (≈ 10.3 to 20.6 µM); with H. influenzae it was 2 to 16 µg/mL (≈ 5.16 to 41.3 µM); in the test with M. catarrhalis, 0.06 µg/mL (≈ 0.155 µM).

With `O=CN(O)C[C@@H](CC1CCCC1)C(=O)N1CCCN1C(=O)C1CCCCC1` [Example 31, N-{(2R)-Cyclopentylmethyl-3-[2-Cyclohexanecarbonyl-pyrazolidin-1-yl]-3-oxo-propyl}-N-hydroxyformamide], the MIC in the test with S. pneumoniae was 8 µg/mL (≈ 21.1 µM); in the test with H. influenzae, 4 to 16 µg/mL (≈ 10.5 to 42.2 µM); in the test on M. catarrhalis it was 0.06 µg/mL (≈ 0.158 µM).

For the compound `O=CN(O)C[C@@H](CC1CCCC1)C(=O)N1CCCN1C(=O)c1ccc(N2CCOCC2)nc1` [Example 32, N-{(2R)-Cyclopentylmethyl-3-[2-(6-morpholin-4-yl-pyridine-3-Carbonyl)-pyrazolidin-1-yl]-3-oxo-propyl}-N-hydroxyformamide], the MIC in the test with S. pneumoniae is 1 to 8 µg/mL (≈ 2.18 to 17.4 µM); in the test with H. influenzae, 16 µg/mL (≈ 34.8 µM); with M. catarrhalis, 0.25 µg/mL (≈ 0.544 µM).

In the case of `COc1ccc(C(=O)N2CCCN2C(=O)[C@H](CC2CCCC2)CN(O)C=O)cc1` [Example 33, N-{(2R)-Cyclopentylmethyl-3-[2-(4-methoxybenzoyl)-pyrazolidin-1-yl]-3-oxo-propyl}-N-hydroxyformamide], the MIC with S. pneumoniae was 4 to 16 µg/mL (≈ 9.91 to 39.7 µM); in the test with H. influenzae, 16 to 32 µg/mL (≈ 39.7 to 79.3 µM); with M. catarrhalis, 0.06 µg/mL (≈ 0.149 µM).

In the case of `O=CN(O)C[C@@H](CC1CCCC1)C(=O)N1CCCN1C(=O)c1ccc2c(c1)OCO2` [Example 34, N-{(2R)-Cyclopentylmethyl-3-[2-(benzo[1,3]-dioxole-5-Carbonyl)-pyrazolidin-1-yl]-3-oxo-propyl}N-hydroxyformamide], the MIC in the test on S. pneumoniae is 8 to 16 µg/mL (≈ 19.2 to 38.3 µM); with H. influenzae it was 4 to 16 µg/mL (≈ 9.58 to 38.3 µM); in the test with M. catarrhalis, 0.125 µg/mL (≈ 0.299 µM).

Consider `O=CN(O)C[C@@H](CC1CCCC1)C(=O)N1CCCN1C(=O)c1ccc(F)cc1` [Example 35, N-{(2R)-Cyclopentylmethyl-3-[2-(4-fluorobenzoyl)-pyrazolidin-1-yl]-3-oxo-propyl}-N-hydroxyformamide], for which the MIC is 16 µg/mL (≈ 40.9 µM) in the test on S. pneumoniae, 4 to 8 µg/mL (≈ 10.2 to 20.4 µM) in the test with H. influenzae and 0.125 µg/mL (≈ 0.319 µM) in the test with M. catarrhalis.

As to `O=CN(O)C[C@@H](CC1CCCC1)C(=O)N1CCCN1C(=O)c1cccnc1` [Example 36, N-{(2R)-Cyclopentylmethyl-3-[2-(pyridine-3-Carbonyl)-pyrazolidin-1-yl]-3-oxo-propyl}N-hydroxyformamide], the MIC with S. pneumoniae is 8 µg/mL (≈ 21.4 µM); in the test with H. influenzae, 2 to 32 µg/mL (≈ 5.34 to 85.5 µM); in the test on M. catarrhalis it was 0.125 µg/mL (≈ 0.334 µM).

`COc1ccccc1NC(=O)N1CCCN1C(=O)[C@H](CC1CCCC1)CN(O)C=O` [Example 38, 2-[(2R)-Cyclopentylmethyl-3-(formylhydroxyamino)-propionyl]-pyrazolidine-1-Carboxylic acid (2-methoxyphenyl)amide]: the “MIC or MIC range, S. pneumoniae” value against S. pneumoniae was 8 to 16 µg/mL. Further, the “MIC or MIC range, H. Influenzae” value in the test on H. influenzae was 1 to 2 µg/mL. Besides, the “MIC or MIC range, M. catarrhalis” value against M. catarrhalis stood at 0.25 µg/mL (≈ 0.597 µM).

As for `O=CN(O)C[C@@H](CC1CCCC1)C(=O)N1CCCN1C(=O)Nc1ccccc1` [Example 39, 2-[(2R)-Cyclopentylmethyl-3-(formylhydroxyamino)-propionyl]-pyrazolidine-1-Carboxylic acid phenylamide], the MIC in the test on S. pneumoniae is 4 to 16 µg/mL (≈ 10.3 to 41.2 µM); in the test with H. influenzae, 0.125 to 2 µg/mL (≈ 0.322 to 5.15 µM); with M. catarrhalis, less than 0.125 µg/mL.

`O=CN(O)C[C@@H](CC1CCCC1)C(=O)N1CCCN1C(=O)Nc1ccc(F)cc1` [Example 40]: the values for the MIC in the test with S. pneumoniae, in the test with H. influenzae and in the test on M. catarrhalis were 8 to 16 µg/mL (≈ 19.7 to 39.4 µM), 0.125 to 2 µg/mL (≈ 0.308 to 4.92 µM) and less than 0.125 µg/mL, respectively.

In the case of `COc1cccc(NC(=O)N2CCCN2C(=O)[C@H](CC2CCCC2)CN(O)C=O)c1` [Example 41, 2-[(2R)-Cyclopentylmethyl-3-(formylhydroxyamino)-propionyl]-pyrazolidine-1-Carboxylic acid (3-methoxyphenyl)amide], the MIC was 4 to 8 µg/mL (≈ 9.56 to 19.1 µM) with S. pneumoniae, 0.125 to 2 µg/mL (≈ 0.299 to 4.78 µM) in the test with H. influenzae and less than 0.125 µg/mL in the test on M. catarrhalis.

For the compound `O=C(C[C@@H](CC1CCCC1)C(=O)N1CCCCN1C(=O)c1ccco1)NO` [Example 44, (3R)-Cyclopentylmethyl-4-[2-(furan-2-Carbonyl)-tetrahydropyridazin-1-yl]-N-hydroxy-4-oxo-butyramide], the “MIC or MIC range, S. pneumoniae” value in the test on S. pneumoniae fell in the range of 2 to 4 µg/mL. Besides, the “MIC or MIC range, H. Influenzae” value in the test on H. influenzae is 0.06 to 0.125 µg/mL. Also, the “MIC or MIC range, M. catarrhalis” value in the test with M. catarrhalis was found to be 0.6 µg/mL (≈ 1.59 µM).

“(2R)-Cyclopentylmethyl-3-[2-(furan-2-Carbonyl)-pyrazolidin-1-yl]-3-oxo-propyl}formamide [Example 25]”: the “MIC or MIC range, S. pneumoniae” value against S. pneumoniae fell in the range of 4 to 8 µg/mL. Also, the “MIC or MIC range, H. Influenzae” value in the test on H. influenzae was less than 0.125 to 1 µg/mL. Also, the “MIC or MIC range, M. catarrhalis” value with M. catarrhalis was less than 0.125 µg/mL.

In the case of “(2R)-Cyclopentylmethyl-3-[2-(furan-2-Carbonyl)-tetrahydropyridazin-1-yl]-3-oxo-propyl}formamide [Example 1]”, the “MIC or MIC range, S. pneumoniae” value in the test with S. pneumoniae was in the range of 0.5 to 2 µg/mL. For the same compound, in the test on H. influenzae, the “MIC or MIC range, H. Influenzae” value was less than 0.125 to 0.25 µg/mL. Further, the “MIC or MIC range, M. catarrhalis” value in the test on M. catarrhalis was less than 0.125 µg/mL.
